From paper PMC6045618, “Novel natural killer cell-mediated cancer immunotherapeutic activity of anisomycin against hepatocellular carcinoma cells” (Scientific Reports, 2018)

How the values were obtained:
[1] = system: Huh7 cells; assay: EZ-Cytox Enhanced cell viability assay, Huh7; format: cell-based; conditions: 48 h exposure, read-out: IC50, cell cytotoxicity / proliferation inhibition
Experimental: (§1) HepG2 cells were purchased from the American Type Culture Collection (ATCC, Manassas, VA, USA), and Huh7 cells and SNU449 cells were purchased from the Korean Cell Line Bank (Seoul, Korea). Cells were cultured according to the suppliers’ instructions. HepG2 cells were cultured in Eagle’s minimum essential medium (ATCC) containing 10% FBS (Life Technologies), 2 mM L-glutamine, and penicillin-streptomycin (Life Technologies) at 37 °C in 5% CO2. Huh7 and SNU449 cells were cultured in RPMI1640 (Life Technologies) containing 10% FBS (Life Technologies), 2 mM L-glutamine, and penicillin-streptomycin (Life Technologies) at 37 °C in 5% CO2. Anisomycin was purchased from Sigma-Aldrich (St. Louis, MO, USA) and dissolved at a concentration of 20 mg/mL in 100% DMSO as a stock solution. The stock solution was stored at −20 °C and diluted in medium before each experiment. […]
(§2) Cell proliferation was assessed using an EZ-Cytox Enhanced cell viability assay kit from ITSBIO (Seoul, Republic of Korea). […] At the end of the incubation, the absorbance in each well was measured at 450 nm using a microplate reader. The relative cell viability (%) was calculated using the equation OD^T/OD^C × 100% (where OD^T represents the absorbance of the treatment group, and OD^c represents the absorbance of the control group). […]

[2] = system: SNU449 cells; assay: Annexin V / 7-ADD apoptosis flow cytometry, SNU449; format: cell-based; conditions: 48 h
Experimental: (§3) To analyse apoptotic cells, we stained cells with anti-human CD56-allophycocyanin monoclonal antibodies, 7ADD, and Annexin V (BioLegend, San Diego, CA, USA) following the protocol provided by the manufacturer. Briefly, we stained cells with anti-human CD56-allophycocyanin monoclonal antibodies on ice for 10 min, washed cells with an appropriate volume of chilled Annexin V binding buffer (BioLegend), and resuspended cells in chilled Annexin V binding buffer (BioLegend) in the presence of Annexin V and 7ADD. The cells were incubated on ice for 30 min, washed with chilled Annexin V binding buffer, and analysed. Staining data were collected using a FACSCanto II Cytometer (BD Biosciences).

[3] = system: MHC-I molecules (HLA-A, -B, and -C); assay: Flow cytometry of MHC-I (HLA-A, -B, -C) on HCC cells; format: cell-based; conditions: 0.2 μM 48 h, HepG2, SNU449, Huh7 cells
[4] = system: Huh7 cells; assay: Annexin V / 7-ADD apoptosis flow cytometry, Huh7; format: cell-based; conditions: 48 h
Experimental: as §3

[5] = system: HepG2 cells; assay: Apoptosis of anisomycin-pre-treated HepG2 cells cocultured with NK cells (flow cytometry); format: cell-based, human; conditions: HepG2 pre-treated 0.2 μM 48 h, then NK cells 4 h, CD56-negative gate
Source text: Peripheral blood from healthy donors was obtained from the Red Cross Blood Center. We followed the guidelines of the Red Cross, and all methods and protocols involving the use of human peripheral blood were approved by the Institutional Review Board of the Red Cross. Based on the Red Cross guidelines, informed consent for study participation was obtained, and donor information was not provided. NK cells were isolated from whole blood to more than 95% purity by negative selection using a RosetteSep Human NK Cell Enrichment Cocktail (StemCell Technologies, Vancouver, Canada) according to the manufacturer’s protocol. The isolated NK cells were washed in HBSS plus 4% foetal bovine serum (FBS; Life Technologies, Carlsbad, CA, USA) and resuspended in MEM-α (Life Technologies) containing 20% FBS (Life Technologies) and penicillin-streptomycin (Life Technologies) at 37 °C in 5% CO2.
To analyse apoptotic cells, we stained cells with anti-human CD56-allophycocyanin monoclonal antibodies, 7ADD, and Annexin V (BioLegend, San Diego, CA, USA) following the protocol provided by the manufacturer. […] The cells were incubated on ice for 30 min, washed with chilled Annexin V binding buffer, and analysed. […]

[6] = system: HepG2 cells; assay: EZ-Cytox Enhanced cell viability assay, HepG2; format: cell-based; conditions: 48 h exposure, read-out: IC50, cell cytotoxicity / proliferation inhibition
Experimental: as §1, §2

[7] = system: HepG2 cells; assay: Annexin V / 7-ADD apoptosis flow cytometry, HepG2; format: cell-based; conditions: 48 h
Experimental: as §3

[8] = system: CD58; assay: Western blot of CD58 in HCC cells; format: cell-based; conditions: 0.2 μM, HepG2, Huh7, SNU449 cells
[9] = system: SNU449 cells; assay: EZ-Cytox Enhanced cell viability assay, SNU449; format: cell-based; conditions: 48 h exposure, read-out: IC50, cell cytotoxicity / proliferation inhibition
Experimental: as §1, §2

[10] = system: cleaved caspase-3, cleaved PARP; assay: Immunoblot of cleaved caspase-3 and cleaved PARP in sorted HepG2 cells; format: cell-based; conditions: HepG2, 0.2 μM 48 h
Experimental: HepG2 cells were cultured in the presence or absence of 0.2 µM anisomycin for 2 days and harvested for cell counts. Then, 1 × 10^7 HepG2 cells were cocultured with 1 × 10^7 NK cells for 2 h and harvested by centrifugation at 1,000 rpm for 5 min. Cells were stained with anti-human CD56 monoclonal antibodies (BioLegend), washed, and resuspended in PBS containing HBSS supplemented with 4% FBS (Gibco). CD56-negative HepG2 cells were isolated to nearly 100% purity using an Aria cytometer (BD Biosciences).
Cells were suspended in modified RIPA lysis buffer (150 mM NaCl, 1 mM EDTA, 1% Triton X-100, 1% NP-40, 0.5% sodium deoxycholate, 0.1% sodium dodecyl sulphate [SDS], and 50 mM Tris-HCl [pH 7.4]) containing a protease inhibitor cocktail (Roche, Mannheim, Germany) and phosphatase inhibitors (1 mM sodium fluoride and 2 mM sodium orthovanadate) on ice for 30 min and centrifuged at 15,000 × g for 30 min to collect whole-cell lysates. Proteins (10–20 µg) were then separated by SDS-polyacrylamide gel electrophoresis on 8‒12% gels and transferred to polyvinylidene difluoride membranes (Millipore, Bedford, MA, USA). Western blotting was performed with primary antibodies against caspase3, PARP, and β-actin (Cell Signaling Technology) and peroxidase-conjugated anti-mouse or anti-rabbit secondary antibodies. Proteins were visualized with Enhanced Chemiluminescence Plus reagents (Amersham Biosciences, Piscataway, NJ, USA).

[11] = system: HepG2 carcinoma; assay: HepG2 tumour xenograft in NOD-SCID mice with or without human primary NK cells; format: in vivo, mouse; conditions: 10 mg/kg i.p.
Source text: NOD.CB17-Prkdc^scid/NCrCrl mice were purchased from Charles River Laboratories, Inc. (Wilmington, MA, USA). We used 6-8-week-old female mice in all experiments; these mice were housed in a pathogen-free animal facility. All animal experiments were approved by the Institutional Animal Use and Care Committee of the Korea Research Institute of Bioscience and Biotechnology and performed in accordance with the Guide for the Care and Use of Laboratory Animals published by the US National Institutes of Health.
Six-week-old female NOD.CB17-Prkdc^scid/NCrCrl mice were purchased from Charles River Laboratories, Inc. Xenograft models were established by subcutaneous injection of 1 × 10^6 HepG2 cells into the right flanks of the mice. Five days after inoculation, the mice were randomly separated into groups of four. Anisomycin (10 mg/kg) was administered from day 0 to 5 and from day 15 to 20 after initiation of anisomycin treatment via the intraperitoneal (i.p) route. NK cells (5 × 10^6 cells/mouse) were transferred into mice two times on days 6 and 11 during the treatment pause period. Tumours were measured every 3 days using callipers, and their volumes were calculated according to the following formula: volume (mm^3) = (d^2 × D)/2, where d and D represent the shortest and longest tumour diameters, respectively.

[12] = system: HepG2, Huh7, and SNU449 cells; assay: Light microscopy of cell density; format: cell-based; conditions: 0.2 μM, 2 days
Experimental: HepG2 cells were purchased from the American Type Culture Collection (ATCC, Manassas, VA, USA), and Huh7 cells and SNU449 cells were purchased from the Korean Cell Line Bank (Seoul, Korea). Cells were cultured according to the suppliers’ instructions. HepG2 cells were cultured in Eagle’s minimum essential medium (ATCC) containing 10% FBS (Life Technologies), 2 mM L-glutamine, and penicillin-streptomycin (Life Technologies) at 37 °C in 5% CO2. Huh7 and SNU449 cells were cultured in RPMI1640 (Life Technologies) containing 10% FBS (Life Technologies), 2 mM L-glutamine, and penicillin-streptomycin (Life Technologies) at 37 °C in 5% CO2. Anisomycin was purchased from Sigma-Aldrich (St. Louis, MO, USA) and dissolved at a concentration of 20 mg/mL in 100% DMSO as a stock solution. The stock solution was stored at −20 °C and diluted in medium before each experiment. […] Antibodies against caspase3, PARP, and β-actin were purchased from Cell Signaling Technology (Danvers, MA, USA).

COc1ccc(C[C@H]2NC[C@H](O)[C@H]2OC(C)=O)cc1 [anisomycin]
IC50 [1]: 118 nM
Annexin V and 7-ADD double-positive cells (apoptotic cells) ([2]; SNU449, 0.1 μM): 2.24%
Annexin V and 7-ADD double-positive cells (apoptotic cells) ([2]; SNU449, 0.2 μM): 4.94%
MHC-I molecules (HLA-A, -B, -C) at the protein level [3]: significantly downregulated
Annexin V and 7-ADD double-positive cells (apoptotic cells) ([4]; Huh7, 0.1 μM): 4.59%
Annexin V and 7-ADD double-positive cells (apoptotic cells) ([4]; Huh7, 0.2 μM): 6.85%
Annexin V and 7ADD double-positive cells (apoptotic cells) after coculture with NK cells [5]: 14.00%
IC50 [6]: 82.2 nM
Annexin V and 7-ADD double-positive cells (apoptotic cells) ([7]; HepG2, 0.1 μM): 1.23%
Annexin V and 7-ADD double-positive cells (apoptotic cells) ([7]; HepG2, 0.2 μM): 2.81%
Expression of CD58 (western blot) [8]: increased the expression of CD58 in all three HCC cell lines
IC50 [9]: 138 nM
Cleaved PARP ([10]; anisomycin and NK cells): substantially increased
Cleaved caspase-3 protein after exposure to NK cells ([10]; then NK cells 2 h): synergistically increased
Level of the cleaved form of caspase-3 ([10]; with or without NK cell treatment): significantly increased
Tumour suppression in the presence of human primary NK cells ([11]; days 0 to 5 and 15 to 20, NK cells 5 × 10^6 cells/mouse on days 6 and 11): synergistically enhanced
Body weight loss and abnormal behaviours of treated mice ([11]; days 0 to 5 and 15 to 20, NOD-SCID mice): did not show significant body weight loss or any abnormal behaviours
HepG2 tumour size in mice ([11]; days 0 to 5 and 15 to 20, NOD-SCID mice, without NK cells): significantly reduced HepG2 tumour size
Cell densities observed by light microscopy [12]: reduced the cell densities
